Assay results from patent publication US8552006B2, “Modulators of cystic fibrosis transmembrane conductance regulator” (Vertex Pharmaceuticals Incorporated, priority 2007, dated 2013).

Target: T1, ΔF508-CFTR (Homo sapiens, UniProt P13569, DEL508-508)
T1 construct: expressed in transfected cells
Assay: Membrane potential optical assay for potentiators of ΔF508-CFTR (double-addition HTS, FLIPR III)
Type: cell-based
Details: for Emax: 100% efficacy is the maximum response obtained with 4-methyl-2-(5-phenyl-1H-pyrazol-3-yl)phenol; for EC50: temperature-corrected ΔF508 CFTR NIH 3T3 cells, potentiation with forskolin activation
Text: Membrane Potential Optical Methods for Assaying ΔF508-CFTR Modulation Properties of Compounds
The assay utilizes fluorescent voltage sensing dyes to measure changes in membrane potential using a fluorescent plate reader (e.g., FLIPR III, Molecular Devices, Inc.) as a readout for increase in functional ΔF508-CFTR in NIH 3T3 cells. The driving force for the response is the creation of a chloride ion gradient in conjunction with channel activation by a single liquid addition step after the cells have previously been treated with compounds and subsequently loaded with a voltage sensing dye.
To identify potentiators of ΔF508-CFTR, a double-addition HTS assay format was developed. This HTS assay utilizes fluorescent voltage sensing dyes to measure changes in membrane potential on the FLIPR III as a measurement for increase in gating (conductance) of ΔF508 CFTR in temperature-corrected ΔF508 CFTR NIH 3T3 cells. The driving force for the response is a Cl^− ion gradient in conjunction with channel activation with forskolin in a single liquid addition step using a fluoresecent plate reader such as FLIPR III after the cells have previously been treated with potentiator compounds (or DMSO vehicle control) and subsequently loaded with a redistribution dye.
Bath Solution #1: (in mM) NaCl 160, KCl 4.5, CaCl2 2, MgCl2 1, HEPES 10, pH 7.4 with NaOH.
Chloride-Free Bath Solution: Chloride Salts in Bath Solution #1 are Substituted with Gluconate Salts.
NIH3T3 mouse fibroblasts stably expressing ΔF508-CFTR are used for optical measurements of membrane potential. The cells are maintained at 37° C. in 5% CO2 and 90% humidity in Dulbecco's modified Eagle's medium supplemented with 2 mM glutamine, 10% fetal bovine serum, 1×NEAA, β-ME, 1× pen/strep, and 25 mM HEPES in 175 cm^2 culture flasks. For all optical assays, the cells were seeded at ˜20,000/well in 384-well matrigel-coated plates and cultured for 2 hrs at 37° C. before culturing at 27° C. for 24 hrs. for the potentiator assay. For the correction assays, the cells are cultured at 27° C. or 37° C. with and without compounds for 16-24 hours. Electrophysiological Assays for assaying ΔF508-CFTR modulation properties of compounds.

T1 sequence (P13569 with tags, fused parts or gaps DEL508-508): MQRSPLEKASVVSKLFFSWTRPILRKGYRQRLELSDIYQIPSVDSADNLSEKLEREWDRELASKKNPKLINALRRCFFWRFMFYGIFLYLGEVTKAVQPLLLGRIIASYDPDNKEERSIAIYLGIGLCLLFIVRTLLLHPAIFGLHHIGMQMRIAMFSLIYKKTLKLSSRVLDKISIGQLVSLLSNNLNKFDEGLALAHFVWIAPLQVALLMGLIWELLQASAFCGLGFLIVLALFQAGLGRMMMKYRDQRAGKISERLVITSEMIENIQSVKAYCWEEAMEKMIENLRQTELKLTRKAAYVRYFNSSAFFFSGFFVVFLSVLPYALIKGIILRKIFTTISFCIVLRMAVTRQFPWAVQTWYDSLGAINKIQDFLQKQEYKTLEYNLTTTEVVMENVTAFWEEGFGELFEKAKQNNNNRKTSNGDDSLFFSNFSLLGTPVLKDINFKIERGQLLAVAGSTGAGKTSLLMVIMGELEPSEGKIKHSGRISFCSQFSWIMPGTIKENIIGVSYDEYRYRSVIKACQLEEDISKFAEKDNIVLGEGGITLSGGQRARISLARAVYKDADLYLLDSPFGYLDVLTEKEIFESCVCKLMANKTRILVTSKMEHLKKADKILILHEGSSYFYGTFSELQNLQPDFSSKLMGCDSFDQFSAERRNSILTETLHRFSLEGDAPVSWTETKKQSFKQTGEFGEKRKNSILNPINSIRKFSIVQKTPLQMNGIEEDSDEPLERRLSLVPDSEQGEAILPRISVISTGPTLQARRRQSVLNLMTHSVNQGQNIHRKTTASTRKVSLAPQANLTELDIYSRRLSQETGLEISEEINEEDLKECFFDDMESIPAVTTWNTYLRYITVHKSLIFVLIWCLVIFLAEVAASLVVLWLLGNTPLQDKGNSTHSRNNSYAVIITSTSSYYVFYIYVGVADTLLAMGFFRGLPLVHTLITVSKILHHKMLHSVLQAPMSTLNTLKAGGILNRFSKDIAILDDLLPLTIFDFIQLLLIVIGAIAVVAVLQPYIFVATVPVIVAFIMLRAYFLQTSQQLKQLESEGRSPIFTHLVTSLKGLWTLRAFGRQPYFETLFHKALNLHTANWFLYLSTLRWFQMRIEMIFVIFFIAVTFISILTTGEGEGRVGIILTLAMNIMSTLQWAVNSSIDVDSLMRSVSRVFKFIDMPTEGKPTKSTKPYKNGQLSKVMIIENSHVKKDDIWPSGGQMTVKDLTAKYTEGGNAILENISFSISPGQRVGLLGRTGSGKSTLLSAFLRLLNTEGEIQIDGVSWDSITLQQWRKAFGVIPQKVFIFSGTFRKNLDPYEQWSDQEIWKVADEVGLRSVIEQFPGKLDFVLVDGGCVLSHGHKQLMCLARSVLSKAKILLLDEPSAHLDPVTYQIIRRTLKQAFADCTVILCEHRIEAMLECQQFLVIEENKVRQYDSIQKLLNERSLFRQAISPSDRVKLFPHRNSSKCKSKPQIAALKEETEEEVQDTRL

| Compound | Emax [%] | EC50 [µM] |
| --- | --- | --- |
| Cc1cc2[nH]cc(C(=O)Nc3cc(O)c(C4CCCC4)cc3C(F)(F)F)c(=O)n2c1 [Compound 16] | 25 to 100 | < 5 |
| CCc1cc2[nH]cc(C(=O)Nc3cc(O)c(C(C)(C)C)cc3C(C)(C)C)c(=O)n2c1 [Compound 14, N-(2,4-di-tert-butyl-5-hydroxyphenyl)-7-ethyl-4-oxo-1,4-dihydropyrrolo[1,2-a]pyrimidine-3-carboxamide] | 25 to 100 | < 5 |
| CC(C)(C)c1cc2cc[nH]c2cc1NC(=O)c1c[nH]c2ccnn2c1=O [Compound 6] | 25 to 100 | < 5 |
| Cc1cc2[nH]cc(C(=O)Nc3ccc4cc[nH]c4c3)c(=O)n2n1 [Compound 10] | 25 to 100 | > 20 |
| Cc1cc2[nH]cc(C(=O)Nc3cc(O)c(C4CCCC4)cc3C#N)c(=O)n2c1 [Compound 19] | 25 to 100 | < 5 |
| O=C(Nc1cc2[nH]ccc2cc1C(F)(F)F)c1c[nH]c2ccnn2c1=O [Compound 8] | 25 to 100 | 5 to 20 |
| CCc1cc2[nH]cc(C(=O)Nc3ccc4c(C(F)(F)F)c[nH]c4c3)c(=O)n2c1 [Compound 7] | 25 to 100 | < 5 |
| Cc1cc2[nH]cc(C(=O)Nc3cc4[nH]ccc4cc3C(C)(C)C)c(=O)n2n1 [Compound 4] | 25 to 100 | < 5 |
| CC(C)(C)c1cc(C(C)(C)C)c(NC(=O)c2c[nH]c3ccnn3c2=O)cc1O [Compound 5, N-(2,4-di-tert-butyl-5-hydroxyphenyl)-7-oxo-4,7-dihydropyrazolo[1,5-a]pyrimidine-6-carboxamide] | 25 to 100 | < 5 |
| Cc1cc2[nH]cc(C(=O)Nc3ccc(N4CCC(C)(C)C4)cc3C(F)(F)F)c(=O)n2c1 [Compound 3] | 25 to 100 | < 5 |
| O=C(Nc1ccc(N2CCCC2)cc1C(F)(F)F)c1c[nH]c2ccnn2c1=O [Compound 13] | 25 to 100 | 5 to 20 |
| Cc1cc2[nH]cc(C(=O)Nc3ccc4c(C(F)(F)F)c[nH]c4c3)c(=O)n2c1 [Compound 17] | 25 to 100 | < 5 |
| Cc1cc2[nH]cc(C(=O)Nc3cc(O)c(C4CCCC4)cc3C)c(=O)n2c1 [Compound 18] | 25 to 100 | < 5 |
| Cc1cc2[nH]cc(C(=O)Nc3cc(O)c(C4(C)CCCCC4)cc3F)c(=O)n2c1 [Compound 15] | 25 to 100 | < 5 |
| CCc1cc2[nH]cc(C(=O)Nc3ccc4c(C(C)(C)C)c[nH]c4c3)c(=O)n2c1 [Compound 9] | 25 to 100 | < 5 |
| Cc1cc2[nH]cc(C(=O)Nc3cc(O)c(C(C)(C)C)cc3C(C)(C)C)c(=O)n2n1 [Compound 1] | 25 to 100 | < 5 |
| CCc1cc2[nH]cc(C(=O)Nc3cc4[nH]ccc4cc3C(F)(F)F)c(=O)n2c1 [Compound 11] | 25 to 100 | < 5 |
| CCc1cc2[nH]cc(C(=O)Nc3cc(O)c(C4(C)CCCCC4)cc3F)c(=O)n2c1 [Compound 12] | 25 to 100 | 5 to 20 |
| CC(C)(C)c1c[nH]c2cc(NC(=O)c3c[nH]c4ccnn4c3=O)ccc12 [Compound 2] | > 100 | < 5 |
